These results are taken from patent publication US3992371A, “Penicillins substituted with heterocyclic and substituted phenyl groups” (Sumitomo Chemical Company, Limited, priority 1973, dated 1976).

Holding throughout (assay): Minimal inhibitory concentration, agar dilution method
Assay type in all cases: cell-based
Background: In agar dilution, organisms are placed on agar that contains the substance at set levels.

For experiment [1], the system named is Proteus miravilis GN2425.
The test system of experiment [2] is Proteus vulgaris HV19.
Experiment [3] relates to Staphylococcus aureus 209P. The source says:
(§1) When determined according to the agar dilution method, the penicillins (I) afford the minimal inhibitory concentrations against test microorganisms as shown in Table 2.

Experiment [4] relates to Escherichia coli NIHJ.
Text: as §1

Experiment [5] has as its system Klebsiella pneumoniae PCI602.
Text: as §1

Experiment [6] relates to Pseudomonas aeruginosa 104.
Text: as §1

Converted amounts (≈) assume the structure as drawn.

For the compound `CC1(C)S[C@@H]2[C@H](NC(=O)C(NC(=O)c3cnc4cc(N)ccc4c3O)c3cccc(N)c3)C(=O)N2[C@H]1C(=O)O` (stereo partly drawn) [Example 27], the MIC in experiment [1] was 3.13 µg/mL (≈ 5.68 µM); in experiment [2], 0.39 µg/mL (≈ 0.708 µM); in experiment [3], 0.78 µg/mL (≈ 1.42 µM); in experiment [4], 3.13 µg/mL (≈ 5.68 µM); in experiment [5] it was 12.5 µg/mL (≈ 22.7 µM); in experiment [6] it was 3.13 µg/mL (≈ 5.68 µM).
Regarding `CSc1ccc2ncc(C(=O)NC(C(=O)N[C@@H]3C(=O)N4[C@@H]3SC(C)(C)[C@@H]4C(=O)O)c3ccc(N)cc3)c(O)c2n1` (stereo partly drawn) [Example 24], the MIC in experiment [1] turned out to be 0.78 µg/mL (≈ 1.34 µM); in experiment [2] it was 0.025 µg/mL (≈ 0.0429 µM); in experiment [3], 1.56 µg/mL (≈ 2.68 µM); in experiment [4] it was 0.78 µg/mL (≈ 1.34 µM); in experiment [5] it was 6.25 µg/mL (≈ 10.7 µM); in experiment [6], 1.56 µg/mL (≈ 2.68 µM).
For the compound `CC1(C)S[C@@H]2[C@H](NC(=O)[C@H](NC(=O)c3nnc4ccccc4c3O)c3cccc(N)c3)C(=O)N2[C@H]1C(=O)O` [Example 6, D-α-(4-hydroxycinnoline-3-carboxamido)-m-aminobenzylpenicillin], the MIC stood at 12.5 µg/mL (≈ 23.3 µM) in experiment [1]; 0.78 µg/mL (≈ 1.45 µM) in experiment [2]; 1.56 µg/mL (≈ 2.91 µM) in experiment [3]; 6.25 µg/mL (≈ 11.6 µM) in experiment [4]; 12.5 µg/mL (≈ 23.3 µM) in experiment [5]; 6.25 µg/mL (≈ 11.6 µM) in experiment [6].
With `Cc1ccc2ncc(C(=O)NC(C(=O)N[C@@H]3C(=O)N4[C@@H]3SC(C)(C)[C@@H]4C(=O)O)c3cccc(N)c3)c(O)c2n1` (stereo partly drawn) [Example 19], the MIC in experiment [1] was 0.78 µg/mL (≈ 1.42 µM); in experiment [2], 0.025 µg/mL (≈ 0.0454 µM); in experiment [3], 1.56 µg/mL (≈ 2.83 µM); in experiment [4], 0.78 µg/mL (≈ 1.42 µM); in experiment [5], 6.25 µg/mL (≈ 11.4 µM); in experiment [6], 0.78 µg/mL (≈ 1.42 µM).
Regarding `CN(C)c1ccc2ncc(C(=O)NC(C(=O)N[C@@H]3C(=O)N4[C@@H]3SC(C)(C)[C@@H]4C(=O)O)c3cccc(N)c3)c(O)c2n1` (stereo partly drawn) [Example 22], the MIC in experiment [1] is 0.78 µg/mL (≈ 1.35 µM); in experiment [2] it was 0.025 µg/mL (≈ 0.0431 µM); in experiment [3], 1.56 µg/mL (≈ 2.69 µM); in experiment [4] it was 0.78 µg/mL (≈ 1.35 µM); in experiment [5], 3.13 µg/mL (≈ 5.4 µM); in experiment [6] it was 0.78 µg/mL (≈ 1.35 µM).
Consider `CC1(C)SC2C(NC(=O)C(NC(=O)c3cnc4cccnc4c3O)c3ccc(O)c([N+](=O)[O-])c3)C(=O)N2C1C(=O)O` (stereo not drawn) [Example 62], for which the MIC was 3.13 µg/mL (≈ 5.37 µM) in experiment [1]; 0.05 µg/mL (≈ 0.0858 µM) in experiment [2]; 1.56 µg/mL (≈ 2.68 µM) in experiment [3]; 1.56 µg/mL (≈ 2.68 µM) in experiment [4]; 12.5 µg/mL (≈ 21.5 µM) in experiment [5]; 1.56 µg/mL (≈ 2.68 µM) in experiment [6].
As to `CCOC(=O)Oc1c(C(=O)N[C@@H](C(=O)N[C@@H]2C(=O)N3[C@@H]2SC(C)(C)[C@@H]3C(=O)O)c2ccc(OC)cc2)cnc2cccnc12` [Example 3, D-α-(4-ethoxycarbonyloxy-1,5-naphthyridine-3-carboxamido)-p-methoxybenzylpenicillin], the MIC was 6.25 µg/mL (≈ 10 µM) in experiment [1]; 0.1 µg/mL (≈ 0.16 µM) in experiment [2]; 1.56 µg/mL (≈ 2.5 µM) in experiment [3]; 3.13 µg/mL (≈ 5.02 µM) in experiment [4]; 12.5 µg/mL (≈ 20 µM) in experiment [5]; 3.13 µg/mL (≈ 5.02 µM) in experiment [6].
For `CC1(C)SC2C(NC(=O)C(NC(=O)c3cnc4ccc(N)nc4c3O)c3cccc(N)c3)C(=O)N2C1C(=O)O` (stereo not drawn) [Example 29], the MIC in experiment [1] worked out at 0.78 µg/mL (≈ 1.41 µM); in experiment [2], 0.025 µg/mL (≈ 0.0453 µM); in experiment [3] it was 1.56 µg/mL (≈ 2.83 µM); in experiment [4], 0.78 µg/mL (≈ 1.41 µM); in experiment [5] it was 6.25 µg/mL (≈ 11.3 µM); in experiment [6] it was 0.78 µg/mL (≈ 1.41 µM).
With `COc1nc(OC)c2c(O)c(C(=O)NC(C(=O)NC3C(=O)N4C3SC(C)(C)C4C(=O)O)c3ccc(N)cc3)cnc2n1` (stereo not drawn) [Example 32], the minimum inhibitory concentration (MIC) was found to be 3.13 µg/mL (≈ 5.24 µM) in experiment [1]; 0.05 µg/mL (≈ 0.0837 µM) in experiment [2]; 1.56 µg/mL (≈ 2.61 µM) in experiment [3]; 3.13 µg/mL (≈ 5.24 µM) in experiment [4]; 12.5 µg/mL (≈ 20.9 µM) in experiment [5]; 3.13 µg/mL (≈ 5.24 µM) in experiment [6].
On to `Cc1nc(C)c2ncc(C(=O)NC(C(=O)NC3C(=O)N4C3SC(C)(C)C4C(=O)O)c3cccc(N)c3)c(O)c2n1` (stereo not drawn) [Example 35], for which the MIC in experiment [1] was determined as 1.56 µg/mL (≈ 2.76 µM); in experiment [2] it was 0.025 µg/mL (≈ 0.0442 µM); in experiment [3], 1.56 µg/mL (≈ 2.76 µM); in experiment [4] it was 0.78 µg/mL (≈ 1.38 µM); in experiment [5], 6.25 µg/mL (≈ 11 µM); in experiment [6] it was 1.56 µg/mL (≈ 2.76 µM).
In the case of `CC1(C)S[C@@H]2[C@H](NC(=O)C(NC(=O)c3cnc4ccccc4c3O)c3cccc(N)c3)C(=O)N2[C@H]1C(=O)O` (stereo partly drawn) [Example 15], the MIC worked out at 3.13 µg/mL (≈ 5.84 µM) in experiment [1]; 0.2 µg/mL (≈ 0.373 µM) in experiment [2]; 0.78 µg/mL (≈ 1.46 µM) in experiment [3]; 3.13 µg/mL (≈ 5.84 µM) in experiment [4]; 6.25 µg/mL (≈ 11.7 µM) in experiment [5]; 3.13 µg/mL (≈ 5.84 µM) in experiment [6].
As to `Cc1ccc2c(O)c(C(=O)NC(C(=O)N[C@@H]3C(=O)N4[C@@H]3SC(C)(C)[C@@H]4C(=O)O)c3cccc(N)c3)cnc2c1` (stereo partly drawn) [Example 16], the MIC in experiment [1] stood at 3.13 µg/mL (≈ 5.69 µM); in experiment [2], 0.39 µg/mL (≈ 0.71 µM); in experiment [3] it was 0.78 µg/mL (≈ 1.42 µM); in experiment [4] it was 6.25 µg/mL (≈ 11.4 µM); in experiment [6], 3.13 µg/mL (≈ 5.69 µM).
In experiment [5], `CC1(C)S[C@@H]2[C@H](NC(=O)C(C(=O)O)c3ccccc3)C(=O)N2[C@H]1C(=O)O` (stereo partly drawn) [Carbenicillin, reference compound] registered an MIC of 200 µg/mL (≈ 529 µM).

As usually defined, the MIC is the smallest concentration in the dilution series that meets the test's criterion for growth inhibition. A low value points to a more susceptible organism.
